Experimental findings from EP4786465A1, “NOVEL COMPOUND, AND PHARMACEUTICAL COMPOSITION FOR PREVENTION OR TREATMENT OF CANCER OR TUMORS COMPRISING SAME” (Daewoong Pharmaceutical Co., Ltd., priority 2023, dated 2025) are described below.

Common to all, as to type: cell-based
Experiment [1] deals with transcription factor TEAD. Briefly: Activity inhibition test of transcription factor TEAD (ONE-Glo Luciferase assay, Hippo Pathway TEAD reporter-MCF7 recombinant cell line). The settings on record: Homo sapiens; TEAD Reporter-MCF7 cells, 24 hours treatment, luciferase luminescence. The procedure:
The transcription factor TEAD activity of the compounds prepared in the Examples was measured by the ONE-Glo™ Luciferase assay (Promega, Catalog #E6110) method using the Hippo Pathway TEAD reporter-MCF7 recombinant cell line (BPS Bioscience, Catalog #60618). Specifically, the TEAD Reporter-MCF7 cell line contains the firefly luciferase gene whose expression is regulated under the control of TEAD response elements in the MCF7, which is a human breast cancer cell line. In the cell line, a non-phosphorylated YAP/TAZ exists in the nucleus in a non-stressed condition, which continuously induces expression of the luciferase reporter. TEAD Reporter-MCF7 cells were prepared in 100 µL of cell culture medium (MEM medium, 10% FBS, 1% P/S, 400 µg/mL Geneticin, 1% […], 1 mM NA pyruvate, 10 µg/mL Insulin) in a white clear bottom 96-well microplate. The prepared plate was incubated in a 5% CO2 incubator at 37°C for 24 hours, and then the previously prepared compounds of Examples were finally treated at concentrations of 0.0005, 0.005, 0.05, 0.5 and 5 µM, which were repeated three times for all treatment solutions. The plates treated with the compounds of Examples were incubated in a 5% CO2 incubator at 37°C for 24 hours. 100 µL/well of the substrate aqueous solution containing luciferin was added to a white clear-bottom 96 well microplate, thereby initiating an enzyme reaction. The reaction was performed at room temperature for 5 minutes, and the luminescence (integration time 1000 ms) was measured using a Flexstation3 multi-mode microplate reader. In accordance with the instructions for the ONE-Glo™ Luciferase Assay, the luciferase enzyme activity, which represents the activity of the transcription factor TEAD, was measured by a chemiluminescence method, and the inhibitory activity of the compound according to the present disclosure was calculated. The results of each compound were analyzed using Microsoft Excel, and the IC50 values were calculated by GraphPad Prism software.

Experiment [2] has as its system NCI-H226. Briefly: Cell growth inhibition test (CellTiter-Glo Luminescent Cell Viability), NCI-H226. Particulars: Homo sapiens; NCI-H226 cells, CellTiter-Glo; read-out: growth IC50 H226. The procedure:
(§1) The cell growth for the compounds prepared in Examples was measured by CellTiter-Glo® Luminescednt Cell Viability (Promega, Catalog #G7571) method using NCI-H226 (addexbio), NCI-H28 (Korea Cell Line Bank) cell lines. This evaluation method is a method in which when luciferase enzyme is activated by ATP flowing out from living cells, it reacts with a luciferin substrate, and the enzyme activity at this time is measured to confirm cell viability.
(§2) Specifically, NCI-H226, and NCI-H28 cells were prepared in 100 µL of cell culture medium (RPMI medium, 10% FBS, 1% P/S, 4.5 g/L D-Glucose, 2.383 g/L HEPES Buffer, L-Glutamine, 1.5 g/L Sodium Bicarbonate, 110 mg/L Sodium pyruvate) in a white clear bottom 96-well microplate. The prepared plate was incubated in a 5% CO2 incubator at 37°C for 24 hours, and then the previously prepared compounds of Examples were finally treated at concentrations of 0.0005, 0.005, 0.05, 0.5 and 5 µM, which was repeated three times for all treatment solutions. The plates treated with the compounds of Examples were incubated in a 5% CO2 incubator at 37°C. 100 µL/well of the substrate aqueous solution containing luciferin was added to a white clear-bottom 96 well microplate, thereby initiating an enzyme reaction. The reaction was performed at room temperature in the dark for 10 minutes, and the luminescence was measured using a Flexstation3 multi-mode microplate reader. In accordance with the instructions for the CellTiter-Glo™ Luminescednt Cell Viability, the luciferase enzyme activity, which represents the amount of ATP, was measured by a chemiluminescence method, and the inhibitory activity of the compounds according to the present disclosure was calculated. The results of each compound were analyzed using Microsoft Excel, and the IC50 values were calculated using GraphPad Prism software.

Experiment [3] has as its system NCI-H28. Briefly: Cell growth inhibition test (CellTiter-Glo Luminescent Cell Viability), NCI-H28. Particulars: Homo sapiens; NCI-H28 cells, CellTiter-Glo; read-out: growth IC50 H28. The procedure: as §1, §2
On the technique in general: Cellular ATP, detected with luciferase, serves as a proxy for viable cell number.

As to `C=CC(=O)N1CCc2c(ccc(Nc3cc(F)c(C(F)(F)F)c(F)c3)c2-c2cn(C)cn2)C1` [Example 17, 1-(6-((3,5-difluoro-4-(trifluoromethyl)phenyl)amino)-5-(1-methyl-1H-imidazol-4-yl)-3,4-dihydroisoquinolin-2(1H)-yl)prop-2-en-1-one], the IC50 (in general, the concentration that gives 50% inhibition) amounted to 8.6 nM in experiment [1], 9.6 nM in experiment [2] and 3300 nM in experiment [3].

In the case of `C=CC(=O)N1CCc2c(ccc(Nc3cccc(C(F)(F)F)c3)c2-c2cn(C)cn2)C1` [Example 20, 1-(5-(1-methyl-1H-imidazol-4-yl)-6-((3-(trifluoromethyl)phenyl)amino)-3,4-dihydroisoquinolin-2(1H)-yl)prop-2-en-1-one], the IC50 turned out to be 45 nM in experiment [1], 139 nM in experiment [2] and 1120 nM in experiment [3].

For the molecule `C=CC(=O)N1CCc2c(ccc(Nc3cc(Cl)cc(Cl)c3)c2-c2cn(C)cn2)C1` [Example 21, 1-(6-((3,5-dichlorophenyl)amino)-5-(1-methyl-1H-imidazol-4-yl)-3,4-dihydroisoquinolin-2(1H)-yl)prop-2-en-1-one], the IC50 in experiment [1] is 90.2 nM; in experiment [2] it was 95 nM; in experiment [3], above 5000 nM.

As to `C=CC(=O)N1CCc2c(ccc(Nc3ccc(C(F)(F)F)cc3)c2-c2cn(CC)cn2)C1` [Example 24, 1-(5-(1-ethyl-1H-imidazol-4-yl)-6-((4-(trifluoromethyl)phenyl)amino)-3,4-dihydroisoquinolin-2(1H)-yl)prop-2-en-1-one], the IC50 was 15.4 nM in experiment [1], 80 nM in experiment [2] and above 5000 nM in experiment [3].
